Test results: PubChem BioAssay AID1996
In brackets after ≈: the same amount, converted by molar mass.

Conditions: buffer; pH 7.4; 200.0 µM

First: CCN(CC)CC(=O)c1c(N)n(Cc2ccccc2)c(=O)n(C)c1=O
Second: CCCCN(C(=O)C1=NN(c2ccccc2)C(=O)CC1)c1c(N)n(CCC)c(=O)[nH]c1=O
The solubility kinetic of the first is lower: 51.4 µg/mL (≈ 149 µM) for the first, greater than 66.1 µg/mL for the second.

Compared with `CSC1=N/C(=C/c2cccnc2)C(=O)N1Cc1ccc(Cl)cc1`, `O=C1OC(c2ccc(Cl)cc2)=C/C1=C/c1cccnc1` is 1.6-fold lower in solubility kinetic: 1.1 µg/mL (≈ 3.2 µM) for the first, 0.7 µg/mL (≈ 2.47 µM) for the second.

Compared with `N#Cc1ccc(CSc2nc(N)cc(=O)[nH]2)cc1`, `CCc1ccc2nc(/N=C(\N)NC(=O)c3ccccc3)nc(C)c2c1` is lower in solubility kinetic: greater than 38.7 µg/mL for the first, less than 0.1 µg/mL for the second.

First: Cc1occc1C(=O)O/N=C(\N)c1ccccc1
Second: CC(NC(=O)COC(=O)c1cc(Cl)nc(Cl)c1)c1ccccc1 (stereo not given)
The solubility kinetic of the first is lower: 36.1 µg/mL (≈ 148 µM) for the first, greater than 53 µg/mL for the second.

First: CN(C)CCCC1Sc2ccccc2Sc2ccccc21.O=C(O)C(=O)O (stereo not given)
Second: O=C(COc1ccccc1C(=O)O)NC1CCCc2ccccc21 (stereo not given)
The solubility kinetic of the first is higher: greater than 60.8 µg/mL for the first, 13.8 µg/mL (≈ 42.4 µM) for the second.

Going from `O=C(c1ccc2oc(CCc3ccccc3)nc2c1)N1CC[C@H](O)C1` to `Cc1ccc(N(C)S(=O)(=O)c2cccc(C(=O)N3CCN(Cc4ccccc4)CC3)c2)cc1`, the solubility kinetic falls from 41.1 µg/mL (≈ 122 µM) to 23 µg/mL (≈ 49.6 µM) (1.8-fold).

`O=c1ccc(S(=O)(=O)N2CCCC2)c[nH]1` and `CC(=O)c1cccc(S(=O)(=O)N2CCC(C(=O)O)CC2)c1` cannot be ordered by solubility kinetic: greater than 34.2 µg/mL for the first, greater than 46.7 µg/mL for the second.

`CCOc1ccccc1C(=O)NC(C(=O)NCCc1ccccn1)C(C)C` (stereo not given) and `CSc1ccccc1C(=O)Nc1ccccc1C(=O)NC(C)C` cannot be ordered by solubility kinetic: greater than 55.4 µg/mL for the first, greater than 49.3 µg/mL for the second.

`COc1ccccc1CNC(=O)COC(=O)Cn1cnc2ccccc21` and `O=C(CCCC(=O)c1ccccc1)NCCc1ccccc1F` are within 1.5-fold of each other in solubility kinetic: 38.3 µg/mL (≈ 108 µM) for the first, 44.1 µg/mL (≈ 141 µM) for the second.

Going from `O=C(Nc1cccc(Cl)c1)Nc1csc([N+](=O)[O-])c1` to `O=C(Nc1ccncc1)Nc1cccc(Cl)c1`, the solubility kinetic rises from 0.5 µg/mL (≈ 1.68 µM) to 35.9 µg/mL (≈ 145 µM) (72-fold).

`CCOc1ccc(NC(=O)COC(=O)C2CC2C)cc1` (stereo not given) and `Cc1ccc(NC(=O)CN(C)C(=O)C2CCC2)cc1` cannot be ordered by solubility kinetic: greater than 41.6 µg/mL for the first, greater than 39.1 µg/mL for the second.

Going from `Oc1ccc(-c2csc(Nc3ncccn3)n2)cc1` to `CCS(=O)(=O)Nc1cccc(-c2nc3cccnc3s2)c1`, the solubility kinetic rises from 1 µg/mL (≈ 3.7 µM) to 45.4 µg/mL (≈ 142 µM) (45-fold).

Going from `COc1cccc(NC(=S)N2CCc3cc(OC)c(OC)cc3C2)c1` to `Cc1ccc(NC(=O)CN2CCc3ccccc3C2)cc1C`, the solubility kinetic rises from 4.9 µg/mL (≈ 13.7 µM) to 18.8 µg/mL (≈ 63.9 µM) (3.8-fold).

`O=C(CN1C(=O)C(=O)N(C2CCCC2)C1=O)Nc1ccccc1OC(F)F` and `O=C(COC(=O)c1ccc[n+]([O-])c1)Nc1ccccc1OC(F)F` cannot be ordered by solubility kinetic: greater than 57.2 µg/mL for the first, greater than 50.7 µg/mL for the second.

First: CN(C)CCSc1nc(-c2ccccc2)nc2c1CCCC2
Second: CNc1nc(SC)nc2ccccc12
The solubility kinetic of the first is lower: 17.9 µg/mL (≈ 57.1 µM) for the first, greater than 30.8 µg/mL for the second.

`Cc1ccc(NC(=O)CCN2CC(C)OC(C)C2)cc1.Cl` (stereo not given) and `CC(C)c1ccc(NC(=O)N2CCOCC2)cc1` cannot be ordered by solubility kinetic: greater than 46.9 µg/mL for the first, greater than 37.2 µg/mL for the second.

Compared with `Cc1ccc(CSCc2ccc(C(=O)NCCC(C)C)o2)cc1`, `O=C(CCSCc1ccc(Cl)cc1)NCc1cccs1` is 13-fold higher in solubility kinetic: 2.2 µg/mL (≈ 6.64 µM) for the first, 28.3 µg/mL (≈ 86.8 µM) for the second.

`O=C(OCC(=O)N1CCCCC1)c1c[nH]c2ccccc12` and `Cc1cccc(Cl)c1OCCN1CCCC1.O=C(O)C(=O)O` cannot be ordered by solubility kinetic: greater than 42.9 µg/mL for the first, greater than 49.5 µg/mL for the second.

`O=C(NCc1ccc(F)cc1)c1ccc[nH]1` and `O=C(CN1CCN(Cc2ccc(F)cc2)CC1)NCc1ccccc1` cannot be ordered by solubility kinetic: greater than 32.7 µg/mL for the first, greater than 51.2 µg/mL for the second.

`CCCCn1c(N)c(N(CC)C(=O)c2c(C)noc2C)c(=O)[nH]c1=O` and `Cc1noc(C)c1C(=O)N1CCC(C(=O)c2ccc(F)cc2F)CC1` cannot be ordered by solubility kinetic: greater than 52.4 µg/mL for the first, greater than 52.3 µg/mL for the second.

Going from `Cc1nnc(SCC(=O)Nc2ccccc2F)n(N)c1=O` to `CCC(=O)Nc1c(-c2ccccc2)c(=O)c2ccccc2n1C`, the solubility kinetic falls from greater than 46.4 µg/mL to 44.9 µg/mL (≈ 147 µM).

Compared with `Cc1cnc(C(=O)NCCc2ccc(Cl)cc2)cn1`, `COc1ccc(CCC(=O)NCc2ccc3c(c2)OCO3)cc1` is 1.6-fold lower in solubility kinetic: 36 µg/mL (≈ 131 µM) for the first, 23.1 µg/mL (≈ 73.7 µM) for the second.

`COC(=O)c1cc(S(=O)(=O)N2CCC(C(N)=O)CC2)oc1C` and `COc1ccc(NC(=O)C2CCCCC2)cc1S(=O)(=O)N1CCOCC1` cannot be ordered by solubility kinetic: greater than 49.6 µg/mL for the first, 51.6 µg/mL (≈ 135 µM) for the second.

`Cc1ccc(CNC(=S)N(C)C)cc1` and `CC(C)C[C@H](NC(=O)NCc1ccc(F)cc1)C(=O)O` cannot be ordered by solubility kinetic: greater than 31.2 µg/mL for the first, greater than 42.3 µg/mL for the second.

First: CN1CCN(C(=O)C2CCC(C)(C(=O)O)C2(C)C)CC1 (stereo not given)
Second: COc1ccc(/C=C/C(=O)N2CCN(c3ccccn3)CC2)cc1
The solubility kinetic of the first is 2.9-fold higher: 40.5 µg/mL (≈ 143 µM) for the first, 13.9 µg/mL (≈ 43 µM) for the second.

Compared with `Cc1ccc(NS(=O)(=O)c2ccc3c(c2)oc(=O)n3C)cc1C`, `COc1ccc(S(=O)(=O)Nc2cc(C)on2)cc1NC(C)=O` is higher in solubility kinetic: less than 0.4 µg/mL for the first, greater than 48.8 µg/mL for the second.

Compared with `Cl.OC(COCc1ccc(Cl)cc1)CN1CCCCC1` (stereo not given), `O=C(CN1CCN(c2ccc(Cl)cc2)CC1)c1ccccc1` is 2.5-fold lower in solubility kinetic: 46.4 µg/mL for the first, 18.7 µg/mL (≈ 59.4 µM) for the second.

`Cn1c(N)c(N=O)c(=O)n(C)c1=O` and `C=CCn1c(O)c(C=Nc2c(C)n(C)n(-c3ccccc3)c2=O)c(=O)[nH]c1=O` cannot be ordered by solubility kinetic: greater than 27.6 µg/mL for the first, greater than 57.2 µg/mL for the second.

First: CCN(CC)C(=O)c1cc(-c2ccc3c(c2)OCO3)on1
Second: c1cc2c(cc1NC1CCCCCC1)OCO2
The solubility kinetic of the first is 3.5-fold higher: 20.8 µg/mL (≈ 72.1 µM) for the first, 5.9 µg/mL (≈ 25.3 µM) for the second.

`CCS(=O)(=O)C(C)(CCl)C(=O)Nc1ccc(C(=O)OC)cc1` (stereo not given) and `Cn1nccc1C(=O)OCC(=O)Nc1ccc(S(N)(=O)=O)cc1` cannot be ordered by solubility kinetic: greater than 52.2 µg/mL for the first, greater than 50.8 µg/mL for the second.

`COc1ccc(NC(=O)N2C[C@@H]3C[C@@H](C2)c2cccc(=O)n2C3)cc1` and `COc1ccc(N2CC(C(=O)Nc3ccncc3)CC2=O)cc1` (stereo not given) cannot be ordered by solubility kinetic: greater than 50.9 µg/mL for the first, greater than 46.7 µg/mL for the second.

Compared with `CC(C)(C)NC(=O)CSCc1ccc(Br)cc1`, `Cc1c(C(=O)NCCSCc2ccccc2)cccc1[N+](=O)[O-]` is lower in solubility kinetic: greater than 47.4 µg/mL for the first, 46.6 µg/mL (≈ 141 µM) for the second.

Compared with `COc1cccc2cc(C(=O)NCCN3CCOCC3)c(=O)oc12`, `Cc1cc(NC(=O)C2CC(=O)N(c3cccc(Cl)c3)C2)no1` (stereo not given) is lower in solubility kinetic: greater than 49.9 µg/mL for the first, 16.3 µg/mL (≈ 51 µM) for the second.

Going from `CNC(=O)Cc1csc2ccc(C)cc12` to `CNC(=S)Nc1cc(C)ccc1OC(F)F`, the solubility kinetic rises from 30.4 µg/mL (≈ 139 µM) to greater than 36.9 µg/mL.

`Cc1nc2ccccc2c(=O)n1-c1ccc(F)cc1F` and `CC(C)(C)C(=O)Oc1cccc(Nc2ncnc3ccccc23)c1` are within 1.5-fold of each other in solubility kinetic: 36.9 µg/mL (≈ 136 µM) for the first, 34.1 µg/mL (≈ 106 µM) for the second.

Going from `Cc1ccccc1C(N)c1ccncc1.Cl` (stereo not given) to `S=C(Nc1ccccc1)N1CCc2ccccc21`, the solubility kinetic falls from greater than 40.7 µg/mL to 23.8 µg/mL (≈ 93.6 µM).

Compared with `CC1CC(C)CN(C(=O)Cn2cc(C=O)c3ccccc32)C1` (stereo not given), `COc1ccccc1OCCCC(=O)Nc1nccs1` is lower in solubility kinetic: greater than 44.8 µg/mL for the first, 23.4 µg/mL (≈ 80 µM) for the second.

First: O=C1c2ccccc2NC(c2ccccc2)N1Cc1ccccc1 (stereo not given)
Second: CC(C)[C@H](NC(=O)c1cccc(CN(Cc2ccccc2)C(=O)/C=C/c2ccccc2)c1)C(=O)O
The solubility kinetic of the first is 8.7-fold lower: 7.9 µg/mL (≈ 25.1 µM) for the first, 69 µg/mL (≈ 147 µM) for the second.

Going from `CCOC(=O)CSc1nc(C)c2cc(C)c(C)cc2n1` to `Cc1cc(Cl)cc(C)c1OCC(=O)NC1CCCCCC1`, the solubility kinetic falls from 6 µg/mL (≈ 20.7 µM) to 1.9 µg/mL (≈ 6.13 µM) (3.2-fold).

Going from `Cc1c(O)nc(SC2CC(=O)N(c3cc(Cl)cc(Cl)c3)C2=O)[nH]c1=O` (stereo not given) to `Cc1ccc(Cl)cc1NC(=O)CC1NC2CCCCC2NC1=O` (stereo not given), the solubility kinetic falls from greater than 60 µg/mL to 38.6 µg/mL (≈ 115 µM).

First: OC(CNC1CCCCC1)C(F)(F)F (stereo not given)
Second: COc1cccc(OCCNc2ccc([N+](=O)[O-])cn2)c1
The solubility kinetic of the first is higher: greater than 31.7 µg/mL for the first, 4.7 µg/mL (≈ 16.2 µM) for the second.

Compared with `O=C(O)c1ccc(S(=O)(=O)c2ccc([N+](=O)[O-])cc2[N+](=O)[O-])cc1`, `COc1ccc(C(=O)c2ccc(-c3ccc(OC)cc3)nc2)cc1` is lower in solubility kinetic: greater than 52.8 µg/mL for the first, less than 0.7 µg/mL for the second.

For `COCCCn1c(=O)c2sccc2n(Cc2cccc(C)c2)c1=O`, the solubility kinetic was 15.1 µg/mL (≈ 43.8 µM).
